Data taken from PubChem BioAssay (NCI).
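Values below derive from 48-hour exposures of cells grown in 96-well plates, with endpoints linearly interpolated between the two concentrations bracketing the appropriate inhibition level. GI50 = concentration required for 50% inhibition of growth. TGI is the concentration that stops growth completely.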

Columns and labels:
Test in all cases: NCI tumour cell line growth inhibition, 48 h
[1] = system: KM12 colon
[2] = system: HCT-15 colon
[3] = system: BT-549 breast
[4] = system: LOX IMVI melanoma
[5] = system: CCRF-CEM leukemia
[6] = system: TK-10 renal
[7] = system: SF-268 CNS
[8] = system: MCF7 breast
[9] = system: NCI/ADR-RES ovarian
[10] = system: KM20L2 colon
[11] = system: DLD-1 colon
[12] = system: HOP-18 NSCLC
[13] = system: SNB-78 CNS
[14] = system: DMS 114 small cell lung

Compound	TGI [1]	TGI [2]	TGI [3]	TGI [4]	TGI [5]	TGI [6]	TGI [7]	TGI [8]	TGI [9]	GI50 [1]	GI50 [2]	GI50 [3]	GI50 [4]	GI50 [5]	GI50 [7]	TGI [10]	TGI [11]	TGI [12]	TGI [13]	TGI [14]
O=c1oc2ccccc2cc1-c1cc2ccccn2c1	> 100 µM	> 100 µM	> 100 µM	> 100 µM	> 100 µM	> 100 µM	> 100 µM	> 100 µM	> 100 µM											
O=C1C=CC(=O)c2c1ccc1c3ccccc3n(CCCCCn3c4ccccc4c4ccc5c(c43)C(=O)C=CC5=O)c21	> 100 µM	36.2 µM	82 µM	35 µM	6.58 µM	26.8 µM	32.7 µM	43.3 µM	> 64.9 µM											
Nc1ccc2c(c1)C(=O)N1CCC[C@H]1C(=O)N2	> 100 µM	> 100 µM	> 100 µM	> 100 µM	20.5 µM	> 100 µM	> 100 µM	> 100 µM	> 100 µM											
CC1(C)/C(=N\NC(N)=O)C2CCC1C2 (stereo unspecified)	> 100 µM	> 100 µM	> 100 µM	> 100 µM	> 100 µM	> 100 µM	> 100 µM	> 100 µM	> 100 µM											
CCCNC(=O)NNC(=O)c1c[nH]c2nc(C)ccc2c1=O	> 100 µM	> 100 µM	> 100 µM	> 100 µM	> 100 µM	> 100 µM	> 100 µM	> 100 µM	> 100 µM											
CCOC(=O)NC(Nc1ccc(C)cc1)(C(F)(F)F)C(F)(F)F	> 100 µM	> 100 µM	> 100 µM	> 100 µM	> 100 µM	> 100 µM	> 100 µM	> 100 µM	> 100 µM											
COC(=O)c1c(O)ccc2c1c1c(n2Cc2cc(OC)cc(OC)c2)C(=O)c2ccccc2C1	> 100 µM	> 100 µM	> 100 µM	> 100 µM	67.5 µM	> 100 µM	> 100 µM	> 100 µM	63.1 µM											
CC(=O)c1ccccc1NP(=O)(c1ccccc1)c1ccccc1	> 100 µM	> 100 µM	> 100 µM	> 100 µM	> 100 µM	> 100 µM	> 100 µM	> 100 µM	> 100 µM											
O=S(=O)(O)CCCc1cccc2ccccc12	> 100 µM	> 100 µM	> 100 µM	> 100 µM	> 100 µM	> 100 µM	> 100 µM	> 100 µM	> 100 µM											
O=[N+]([O-])c1ccc(CN(CCCl)OCCCl)cc1	> 100 µM	> 100 µM	> 100 µM	> 100 µM	> 100 µM	> 100 µM	> 100 µM	> 100 µM	> 100 µM											
O=C1Nc2cccc(Cl)c2/C1=C\c1c(Cl)nc2n1CCS2	> 100 µM	> 100 µM	> 100 µM	> 100 µM	> 100 µM	> 100 µM	> 100 µM	> 100 µM	> 100 µM											
Cc1[nH]c(=O)nc2nc3ccc(Cl)cc3c(NCCNCCO)c12	23 µM	31.9 µM	30.5 µM	21 µM	28.1 µM	33.1 µM	27.9 µM	26.6 µM	42.3 µM											
Cc1ccc(-n2cnc(C(=N)C#N)c2N)cc1	> 100 µM	> 100 µM	> 100 µM	> 100 µM	> 100 µM	> 100 µM	> 100 µM	> 100 µM	> 100 µM											
C[C@H]1[C@H]2[C@H]3CC[C@@H]4[C@@]5(C)CC[C@H](O)C(C)(C)[C@@H]5CC[C@@]4(C)[C@]3(C)C[C@H](O)[C@@]2(C)C[C@H]2O[C@]21C	46.1 µM	54.8 µM	41.5 µM	39.1 µM	> 100 µM	41.5 µM	36.7 µM	42.3 µM	51.8 µM											
CN1C(=O)c2ccccc2OC12C=Cc1c(ccc3ccccc13)O2 (stereo unspecified)	8.64 µM	> 25.5 µM	> 56.6 µM	22.9 µM	> 29.6 µM	> 61 µM	31.4 µM	> 44.6 µM	6.79 µM											
N#Cc1n[nH]n(-c2ccc(Br)cc2)c1=O	> 100 µM	> 100 µM	> 100 µM	> 100 µM	> 100 µM	> 100 µM	> 100 µM	> 100 µM	> 100 µM											

Compound	TGI [1]	TGI [2]	TGI [3]	TGI [4]	TGI [5]	TGI [6]	TGI [7]	TGI [8]	TGI [9]	GI50 [1]	GI50 [2]	GI50 [3]	GI50 [4]	GI50 [5]	GI50 [7]	TGI [10]	TGI [11]	TGI [12]	TGI [13]	TGI [14]
CCOC1(OCC)C2C=CC1C(COS(=O)(=O)c1ccc(C)cc1)C2COS(=O)(=O)c1ccc(C)cc1 (stereo unspecified)	> 100 µM	> 100 µM	> 100 µM	> 100 µM	> 100 µM	> 100 µM	> 100 µM	> 100 µM	> 100 µM											
Cn1c(=O)c2c(ncn2CCNC(CO)C(O)c2ccc([N+](=O)[O-])cc2)n(C)c1=O (stereo unspecified)	> 100 µM	> 100 µM	> 100 µM	> 100 µM	> 100 µM	> 100 µM	> 100 µM	> 100 µM	> 100 µM											
N#CC1C(=S)NC(c2ccccc2)=CC12CCCCC2 (stereo unspecified)	60.2 µM	53 µM	35.7 µM	40.7 µM	56.4 µM	54.9 µM	> 100 µM	42.4 µM	> 100 µM											
CCO/C(O)=C(/C(=N)N1CCOCC1)C(=O)Nc1ccc(F)cc1	> 100 µM	> 100 µM	> 100 µM	> 100 µM	> 100 µM	> 100 µM	> 100 µM	> 100 µM	> 100 µM											
O=C(O)C(O)C(O)C(O)C(O)c1nc2ccccc2s1 (stereo unspecified)	71.1 µM	82.9 µM	63.2 µM	36.7 µM	> 100 µM	29.3 µM	29 µM	33.1 µM	> 100 µM											
Cc1c(O)ccc2c(O)c(NC(=O)c3ccc4c(c3)CCC(C)(C)O4)c(=O)oc12	> 100 µM	> 100 µM	> 100 µM	> 100 µM	> 100 µM	> 100 µM	> 100 µM	> 100 µM	> 100 µM											
NS(=O)(=O)c1ccc(/C=C/c2ccc(O)c(O)c2)cc1	48.9 µM	> 100 µM	27.1 µM	> 100 µM	> 100 µM	> 100 µM	47.3 µM	51.9 µM	71.7 µM	18.2 µM	13.9 µM	4.13 µM	29.9 µM	4.79 µM	18.2 µM					
CC(C)(C)OC(=O)N(CCCCN(CCCNC(=O)C(F)(F)F)C(=O)OC(C)(C)C)CCCNC(=O)C(F)(F)F	> 100 µM	> 100 µM	> 100 µM	> 100 µM	> 100 µM	> 100 µM	> 100 µM	> 100 µM	> 100 µM											
C=CCn1c(N)c(C#N)c(C#N)c1-c1ccccc1	> 100 µM	> 100 µM	> 100 µM	> 100 µM	> 100 µM	> 100 µM	> 100 µM	> 100 µM	> 100 µM											
COc1cc(OC)c2nc(C)c(CCCl)c(Cl)c2c1	> 100 µM	> 100 µM	> 100 µM	> 100 µM	> 100 µM	> 100 µM	> 100 µM	> 100 µM	> 100 µM											
Cc1ccc(S(=O)(=O)c2[nH]cc(/C(=C\C3CCCCC3)[N+](=O)[O-])c2C2CCCCC2)cc1	4.1 µM	0.46 µM	0.813 µM	0.439 µM	0.991 µM	2.08 µM	1.84 µM	> 100 µM	19.9 µM											
COc1cc2c(cc1OC)C(CC1=C(c3ccccc3)CN3CCc4cc(OC)c(OC)cc4C3C1)NCC2 (stereo unspecified)	39.1 µM	36.1 µM		33.6 µM	37.6 µM	32.7 µM	37.5 µM									28.9 µM	34.9 µM	30.9 µM	31.9 µM	30.3 µM
O=c1[nH]cnc2c1cnn2Cc1cn(CCCCO)nn1	> 100 µM	> 100 µM	> 100 µM	> 100 µM	> 100 µM	> 100 µM	> 100 µM	> 100 µM	> 100 µM											
O=c1[nH]nnc2c1sc1ncccc12	> 100 µM	> 100 µM	> 100 µM	> 100 µM	> 100 µM	> 100 µM	> 100 µM	> 100 µM	> 100 µM											
Cc1c(C)c2c(c(N)c1C#N)C(=O)N(NC(=O)c1ccccc1)C2=O	> 100 µM	> 100 µM	> 100 µM	> 100 µM	> 100 µM	> 100 µM	> 100 µM	> 100 µM	> 100 µM											
COC(=O)/C=C(\C(=O)OC)C1C(=O)Oc2c(C)c(=O)c3ccccc3n21 (stereo unspecified)	> 100 µM	> 100 µM	> 100 µM	> 100 µM	> 100 µM	> 100 µM	> 100 µM	> 100 µM	> 100 µM											
